What was measured:
MCP-1 mRNA = MCP-1 mRNA expression in HAEC by real-time PCR; assay type: cell-based, human; conditions: 10 μM 24 h, 25 mM glucose 3 h, GAPDH internal standard, FIG. 3B
Protocol: (§1) HAEC cells pre-treated with 10 μM of CS or FS for 24 hours were stimulated with 25 mM glucose for 3 hours, and total RNA was extracted with Isogenkit (NIPPON GENE CO., LTD.). From 1 μg of RNA, cDNA was synthesized using 100 U/mL of reverse transcriptase (TAKARA BIO INC.) and 0.1 μM of oligo (dT)-adapter (TAKARA BIO INC.) (total volume of reaction mixture; 50 μL) (42° C., 40 minutes). Real-time PCR was performed using 7300 Real Time PCR system (Applied Biosystems Japan Ltd.) and the PCR product was detected by SYBER Green I.
(§2) PCR reaction composition (RT-PCRkit, TAKARA BIO INC.): 12.5 μL Premix Ex Taq, 2.5 μL SYBER Green I, synthesis primer, ROX reference dye, cDNA (corresponding to 20 ng of total RNA), final reaction volume; 25 μL
(§3) Primers having the following sequences were used.
(§4) PCR was conducted under the following conditions.
(§5) thermal denaturation: at 95° C. for 15 seconds, extension reaction: 40 cycles (3 seconds at 95° C., 31 seconds at 60° C.)
(§6) Expression amounts of VCAM-1 and MCP-1 mRNA were calculated using GAPDH as the internal standard.

[1] = test system: TNF-α, IL-1α, IL-1β and IL-6 production; conditions: human peripheral blood monocyte stimulated by LPS; cited from earlier work
U-937 cells / HAEC = assay: Migration capability of monocyte (U-937), Transwell system with HAEC; assay type: cell-based, human; conditions: HAEC pre-incubated 5 or 10 μM 24 h, 25 mM glucose 4 h; FIG. 7
Protocol: The migration capability of monocyte was measured using the Transwell system (pore size 3 μm; BD Biosciences). HAEC cultured on a transwell placed in a 24 well microplate was pre-incubated with 5 or 10 μM serotonin derivative for 24 hours, and stimulated with 25 mM glucose for 4 hours. 200 μL of U-937 cell suspension (10^6 cells/mL) was added to the transwell and the cells were incubated as-is at 37° C. for 2 hours. The number of cells migrated to the lower chamber of the transwell through the membrane was counted under a microscope (20 fields). The experiment was repeated three times, and the results are shown as an average value thereof. An experiment using fluorescence-labeled U-937 cells was also performed. BCECF-AM-labeled U-937 cells were plated in the upper chamber of the transwell and incubated at 37° C. for 2 hours. The cells migrated to the lower chamber through the membrane were collected in 1 mL of PBS buffer and treated with 1% Triton X for 2 hours. The fluorescence derived from the migrated cells was quantified (Ex. 503 nm, Em. 525 nm) using a fluorescence plate reader (Bio-Rad, Fluoromark).

VCAM-1 = VCAM-1 protein expression on HAEC cell membrane (immunostaining); assay type: cell-based, human; conditions: 0.1-10 μM 24 h, 25 mM glucose 4 h, FIG. 4A
Protocol: (§7) HAEC cells proliferated to confluence in a 96 well microplate were pre-incubated with 0.1-10 μM serotonin derivative for 24 hours, and stimulated with 25 mM glucose for 4 hours. The cell layer was washed with Hanks solution, and then anti-VCAM-1 monoclonal antibody (Becton Dickinson) was added and the cells were incubated at 37° C. for 1 hour. After washing, the cells were incubated with secondary antibody (peroxidase-labeled anti-mouse IgG goat F(ab′)2 fragment; Cappel) for 1 hour. A color development substrate (o-phenylenediamine dihydrochloride) was added and, about 30 minutes later (room temperature), the absorbance (492 nm) of each well was quantified with a microplate reader. The MCP-1 concentration of the medium was quantified with Human MCP-1 Immunoassay Kit (BioSource International).

MCP-1 = MCP-1 secretion into medium of HAEC (immunoassay); assay type: cell-based, human; conditions: 0.1-10 μM 24 h, 25 mM glucose 4 h, FIG. 4B
Protocol: as §7

NF-κB (p65) = assay: Activation of NF-κB (nuclear translocation of p65) in HAEC stimulated with high glucose; assay type: cell-based, human; conditions: pre-treatment 5 and 10 μM 24 h, 25 mM glucose 2 h, FIG. 1
Protocol: In the present invention, the term “suppression of NF-κB activation” means suppression of the translocation of NF-κB into the nucleus. The suppression of the translocation of NF-κB into the nucleus can be confirmed by the method described in Example 1. To be specific, a test substance is added to a culture medium of human aortic endothelial cells, the cells are incubated for a predetermined time, the nucleus is extracted from the aforementioned cells stimulated with glucose, and activated NF-κB (p65) translocated into the nucleus is detected. Using the cells before glucose stimulation, wherein NF-κB is not activated, as a negative control and the cells stimulated with glucose and free of addition of a test substance as a positive control, when the detection level of the aforementioned p65 is closer to the negative control than to the positive control, NF-κB activation is evaluated to have been suppressed.
Human aortic endothelial cells (HAEC) were purchased from Clonetics Corp, and the cells cultured for 3-4 passages (37° C., under 5% carbon dioxide gas atmosphere) were used for the experiment. […] Nucleus was extracted from the cells using Nuclear Extract Kit (Active Motif), and then the activated NF-κB (p65) translocated into the nucleus was detected by TransAM NF-κB p65 Kit (Active Motif).

VCAM-1 mRNA = VCAM-1 mRNA expression in HAEC by real-time PCR; assay type: cell-based, human; conditions: 10 μM 24 h, 25 mM glucose 3 h, GAPDH internal standard, FIG. 3A
Protocol: as §1, §2, §3, §4, §5, §6

[2] = test system: U-937 monocyte cells / HAEC; assay: Monocyte (U-937) adhesion to HAEC cells; assay type: cell-based, human; conditions: HAEC pre-incubated 5 or 10 μM 24 h, 25 mM glucose 4 h; FIG. 5
Protocol: HAEC cells proliferated to confluence in a 24 well microplate were pre-incubated with CS and FS (5 or 10 μM each) for 24 hours and stimulated with 25 mM glucose for 4 hours. The cell layer was washed with Hanks solution, and then a suspension (1×10^6/mL, 200 μL) of U-937 monocyte cells (purchased from ATCC) was added, and the mixture was incubated at 37° C. for 30 minutes. After washing again, the cells were fixed with 1% para-formaldehyde and the number of U-937 cells attached onto HAEC was counted under a microscope (20 fields). The experiment was performed 3 times and the results are shown as an average value thereof. An experiment using fluorescence-labeled U-937 cells was also performed. To be specific, U-937 cells were incubated (37° C., 1 hour) in the presence of 10 μM 2′,7′-bis(2-carboxyethyl)-5(6)-carboxyfluorescein acetoxymethylester (BCECF-AM, Molecular Probes) and washed by centrifugation. Fluorescence-labeled U-937 cells (1×10^6/mL) were added to HAEC cells, and the mixture was incubated at 37° C. for 1 hour. The floating U-937 cells were removed, the plate was washed with PBS buffer and treated with 1% Triton X for 2 hours. The fluorescence amount of the attached cells was quantified (Ex. 503 nm, Em. 525 nm) using a fluorescence plate reader (Bio-Rad, Fluoromark).

[3] = test system: IBD model mice (IL-10 deficient cell-transplanted SCID mice); conditions: Ikenoue et al. 2005; cited from earlier work

Structure (SMILES)	expression amount of MCP-1 mRNA (MCP-1 mRNA)	concentration inhibiting production of TNF-α, IL-1α, IL-1β and IL-6 at a transcription level [1]	number of U-937 cells migrated into subendothelium space (cell count) (U-937 cells / HAEC)	VCAM-1 expression on the cell membrane (VCAM-1)	MCP-1 secretion into the medium (MCP-1)	nuclear translocation of p65 (activation of NF-κB) (NF-κB (p65))	expression amount of VCAM-1 mRNA (VCAM-1 mRNA)	number of U-937 cells attached onto HAEC (cell count) [2]	condition (chronic inflammation in the intestine) of the IBD model [3]
O=C(/C=C/c1ccc(O)cc1)NCCc1c[nH]c2ccc(O)cc12 [CS, N-(p-coumaroyl)serotonin]	significantly suppressed the increase	≥ 50 µM	significantly decreased	suppressed the induction of their expressions in a dose-dependent manner	suppressed the induction of their expressions in a dose-dependent manner	significantly suppressed	significantly suppressed the increase	decreased the number of attached cells in a serotonin derivative dose-dependent manner	–
C[C@]12C=CC(=O)C=C1CC[C@@H]1[C@@H]2[C@@H](O)C[C@@]2(C)[C@H]1CC[C@]2(O)C(=O)CO [prednisolone]	–	–	–	–	–	–	–	–	can be improved
